Values after ≈ are worked out from the molar mass of the structure shown. Like-named read-outs stand apart in the source and are kept apart here. Numbered stars: 1 amine (or outer) side, 2 acyl side, 3 side chain; on linkers, the order of the positions; unused ones are H or OH. Bridge positions count the residues as written; N and C are the ends. Square brackets hold non-standard residues; d marks the D form. Peptide text beside a SMILES is read from it. * marks the point of attachment. Phe(3-CF3) = N[C@@H](Cc1cccc(C(F)(F)F)c1)C(=O)O; Piperazine(2S-CO,4-Me) = CN1CCN[C@H](C(=O)O)C1; NH(1,3-benzodioxol-5-yl) = c1cc2c(cc1N*)OCO2; Phe(3,5-F2) = N[C@@H](Cc1cc(F)cc(F)c1)C(=O)O; NH(1-Me-indolin-5-yl) = CN1CCc2cc(N*)ccc21; X6 = O=C([C@@H]1CS(=O)(=O)CCN1[*:1])[*:2]; Phe(3-Cl) = N[C@@H](Cc1cccc(Cl)c1)C(=O)O; Morpholine(3S-CO) = O=C(O)[C@@H]1COCCN1; Phe(3-Me) = Cc1cccc(C[C@H](N)C(=O)O)c1; NH(4-Cl-2-F-phenyl) = Fc1cc(Cl)ccc1N*; Pro(4R-Me) = C[C@H]1CN[C@H](C(=O)O)C1; Hyp = O=C(O)[C@@H]1C[C@@H](O)CN1; NH(4-Et-phenyl) = CCc1ccc(N*)cc1; NH(4-Me-phenyl) = Cc1ccc(N*)cc1; aThr = C[C@H](O)[C@H](N)C(=O)O; Pip = O=C(O)[C@@H]1CCCCN1; X3 = c1cc2c(cc1N*)OCCO2; CO = O=C([*:1])[*:2]
How the values were obtained:
S. aureus ΔClpP = assay: Minimal inhibitory concentration, microbroth dilution; assay type: cell-based, Staphylococcus aureus; conditions: MIC; ClpP inactivated
Outline: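 MIC is recorded by eye as the lowest drug concentration that stops bacterial growth. Compound is serially diluted twofold in broth, starting at 200 μM final, and bacteria are added at roughly 10^5 cfu/mL. Incubation runs overnight at 37 °C under aerobic conditions, per CLSI guidance.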

Solubility determination = assay type: physicochemical; conditions: for solubility kinetic at 10 min: 22 °C, aqueous buffer, kinetic from dmso stock
Description: Test compounds were synthesized and supplied by the Department of Chemical Biology and Therapeutics at St. Jude Children's Research Hospital (Memphis, Tenn.). LC-MS chromasolv grade acetonitrile (ACN) was purchased from Fisher Scientific (Loughborough, UK). LC-MS chromasolv grade formic acid was obtained from Sigma-Aldrich (St. Louis, Mo.). Milli-Q water as an ultrapure laboratory grade water was used in aqueous mobile phase.
Chromatographic separation was performed on an Acquity UPLC BEH C18 1.7 μm, 2.1×50 mm column (Waters Corporation, Milford, Mass.) using an Acquity ultra performance liquid chromatography system. The total flow rate was 0.9 mL/min. The sample injection volume was 10 μL. The UPLC column was maintained at 60° C. and the gradient program started at 90% A (0.1% formic acid in MilliQ H2O), changed to 70% A over 0.2 min, to 95% B (0.1% formic acid in ACN) over 1.4 minutes, held for 0.35 minutes, then to 90% A over 0.05 minutes.
Mass data was acquired with an Acquity SQD Mass Spectrometer. The mass spectrometer was operated in positive-ion mode with electrospray ionization. The conditions were as follows: capillary voltage 3.5 kV, cone voltage 30 V, source temperature 150° C., desolvation temperature 350° C., desolvation gas 500 L/hr, cone gas 25 L/hr. Data were acquired using Masslynx v. 4.1 and analyzed using the Quanlynx software suite. A full scan range from m/z=100-1000 in 0.2 s was used to acquire MS data. Both UV and Single ion recording mass spectrometry were used to determine the quantification of the samples.
Stock solutions were prepared by dissolving compounds into DMSO to yield a concentration of 10 mM. Stock solutions were stored at room temperature.
Calibration standards were made by adding stock solutions to DMSO for final concentrations of compounds at concentration of 100, 25, 6.25, 1.563, 0.391 and 0.098 μM.
Solubility test samples were made by adding stock solutions to 200 μL, of DPBS for final concentrations of compounds at 100 μM in a 96-well analytical plate (300 μL, maximum volume in each well). Samples were tested in triplicates. The plate was sealed, shaken at 600 rpm for 10 minutes, and then was centrifuged at 4000 rpm for 20 min at 22° C. 100 μL, of the supernatant was transferred to a new analytical 96-well plate and 10 μL, was injected onto the LCMS system.
Two calibration curves for solubility test samples were analyzed during the quantitation process. The linear regression of test compound peak areas was weighted by 1/x^2. […] Coefficient of determination (R^2) was used to evaluate the linearity of each calibration curve.

Plasma stability assay [1] = assay type: in vitro ADME, human
Description: (§1) The plasma stability property of early drug discovery compounds can influence the in vivo efficacy of the test compounds/drugs. Human and/or mouse plasma degradation is determined using multiple time points to monitor the rate of disappearance of the parent compound during incubation.
(§2) Sample preparation for plasma stability was modified from Di et al. (2005) Int. J. Pharm. 297(1-2): 110-119. A set of incubation times of 0, 3, 24, and 48 hour were used. DMSO stock solutions of test compounds were prepared at 10 mM concentration. 1.8 μL of each test compound was each added directly to 1.8 mL of human/mouse plasma to get the final concentration of 10 μM. This compound/matrix was mixed and 70 μL was transferred to 8 time points plates (each in triplicate wells). For the Time 0 plate, 210 μL of cold acetonitrile with internal standard (4 μg/mL warfarin) was added to each well and no incubation needed. For other seven time points' plate, the plate was incubated at 37° C. for required time, followed by quenching of the reaction by adding 210 μL of cold acetonitrile with internal standard (4 μg/ml warfarin) to each well. All of the plates were sealed and mixed well at 600 rpm for 10 min and were centrifuged at 4000 rpm for 20 min. The supernatants (120 μL) were transferred to analytical plates for analysis by LCMS. Conditions for Waters ACQUITY-UPLC-MS-UV system was described separately. The plasma stability was evaluated via the half-life from least-squares fit of the multiple time points based on first-order kinetics.

Plasma stability assay [2] = assay type: in vitro ADME, mouse
Description: as §1, §2

[3] = solubility in DPBS, 100 μM test samples, LCMS, read-out: LCMS
[4] = plasma stability half-life, human plasma, 37° C.
[5] = plasma stability half-life, mouse plasma, 37° C.

SMILES	Minimal Inhibitory Concentrations (μM) S. aureus ΔClpP (S. aureus ΔClpP) [µM]	μsol (μM) (Solubility determination) [µM]	solubility kinetic at 10 min (Solubility determination) [µM]	Human (Plasma stability assay [1]; human, 10 μM) [h]	Mouse (Plasma stability assay [2]; mouse, 10 μM) [h]	solubility kinetic at 10 min (Solubility determination; [3]) [µM]	μsol (μM) (Solubility determination; solubility) [µM]	Human (Plasma stability assay [1]; [4]) [h]	Mouse (Plasma stability assay [2]; [5]) [h]	μsol (μg/mL) (Solubility determination; solubility) [µg/mL]	Human (hr) (Plasma stability assay [1]; [4])	Mouse (hr) (Plasma stability assay [2]; [5])
C[C@@H]1C[C@H]2C(=O)O[C@@H](C)[C@H](NC(=O)[C@H](Cc3cccc(Cl)c3)NC(=O)Nc3ccc(Cl)cc3F)C(=O)N3CCC[C@H]3C(=O)N3CCN(C)C[C@H]3C(=O)N[C@@H](C)C(=O)N2C1 [Compound 33] ({NH(4-Cl-2-F-phenyl)-CO}-[Phe(3-Cl)][aThr]P[Piperazine(2S-CO,4-Me)]A[Pro(4R-Me)]; ester 2-C)	>20	17.2 ± 7.2	12.8 ± 2.8 (≈ 11 µg/mL)	>50	>50							
Cc1ccc(NC(=O)N[C@@H](Cc2cccc(C)c2)C(=O)N[C@@H]2C(=O)N3C[C@H](O)C[C@H]3C(=O)N3CCN(C)C[C@H]3C(=O)N[C@@H](C)C(=O)N3C[C@H](C)C[C@H]3C(=O)O[C@H]2C)cc1 [Compound 30, (S)—N-((6AS,8R,12S,13S,15AS,17R,21S,23AS)-8-HYDROXY-2,13,17,21-TETRAMETHYL-6,11,15,20,23-PENTAOXOOCTADECAHYDRO-2H,6H,11H,15H-PYRAZINO[2,1-I]DIPYRROLO[2,1-C:2′,1′-L][1]OXA[4,7,10,13]TETRAAZACYCLOHEXADECIN-12-YL)-3-(M-TOLYL)-2-(3-(P-TOLYL)UREIDO)PROPANAMIDE] ({NH(4-Me-phenyl)-CO}-[Phe(3-Me)][aThr][Hyp][Piperazine(2S-CO,4-Me)]A[Pro(4R-Me)]; ester 2-C)	>20					68.8 ± 8.8 (≈ 56.2 µg/mL)	54.5 ± 4.5	>50	>50			
C[C@@H]1C[C@H]2C(=O)OC[C@H](NC(=O)[C@H](Cc3cccc(C(F)(F)F)c3)NC(=O)Nc3ccc(Cl)cc3F)C(=O)N3CCC[C@H]3C(=O)N3CCN(C)C[C@H]3C(=O)N[C@@H](C)C(=O)N2C1 [Compound 18, (S)-2-(3-(4-CHLORO-2-FLUOROPHENYL)UREIDO)-3-(3-(TRIFLUOROMETHYL)PHENYL)-N-((6AS,12S,15AS,17R,21S,23AS)-2,17,21-TRIMETHYL-6,11,15,20,23-PENTAOXOOCTADECAHYDRO-2H,6H,11H,15H-PYRAZINO[2,1-I]DIPYRROLO[2,1-C:2′,1′-L][1]OXA[4,7,10,13]TETRAAZACYCLOHEXADECIN-12-YL)PROPANAMIDE] ({NH(4-Cl-2-F-phenyl)-CO}-[Phe(3-CF3)]SP[Piperazine(2S-CO,4-Me)]A[Pro(4R-Me)]; ester 2-C)	>20	22.7 ± 0.8	22.6 ± 2.1 (≈ 19.9 µg/mL)	46.62	66.31							
Cc1cccc(C[C@H](NC(=O)Nc2ccc(Cl)cc2F)C(=O)N[C@@H]2C(=O)N3CCC[C@H]3C(=O)N3CCS(=O)(=O)C[C@H]3C(=O)N[C@@H](C)C(=O)N3C[C@H](C)C[C@H]3C(=O)O[C@H]2C)c1 [Compound 40, (S)-2-(3-(4-CHLORO-2-FLUOROPHENYL)UREIDO)-3-(M-TOLYL)-N-((6AS,12S,13S,15AS,17R,21S,23AR)-13,17,21-TRIMETHYL-2,2-DIOXIDO-6,11,15,20,23-PENTAOXOOCTADECAHYDRO-6H,11H,15H-DIPYRROLO[2,1-C:2′,1′-L][1,4]THIAZINO[3,4-I][1]OXA[4,7,10,13]TETRAAZACYCLOHEXADECIN-12-YL)PROPANAMIDE] ({NH(4-Cl-2-F-phenyl)-CO}-[Phe(3-Me)][aThr]P[X6]A[Pro(4R-Me)]; ester 2-C)	>20	0	2.21 ± 0.208 (≈ 1.93 µg/mL)	>50	>50							
Cc1cccc(C[C@H](NC(=O)Nc2ccc3c(c2)OCO3)C(=O)N[C@H]2COC(=O)[C@@H]3C[C@@H](C)CN3C(=O)[C@H](C)NC(=O)[C@@H]3CN(C)CCN3C(=O)[C@@H]3CCCN3C2=O)c1 [Compound 17, (S)-2-(3-(BENZO[D][1,3]DIOXOL-5-YL)UREIDO)-3-(M-TOLYL)-N-((6AS,12S,15AS,17R,21S,23AS)-2,17,21-TRIMETHYL-6,11,15,20,23-PENTAOXOOCTADECAHYDRO-2H,6H,11H,15H-PYRAZINO[2,1-I]DIPYRROLO[2,1-C:2′,1′-L][1]OXA[4,7,10,13]TETRAAZACYCLOHEXADECIN-12-YL)PROPANAMIDE] ({NH(1,3-benzodioxol-5-yl)-CO}-[Phe(3-Me)]SP[Piperazine(2S-CO,4-Me)]A[Pro(4R-Me)]; ester 2-C)	>20	71.1 ± 0.7	64.6 ± 2 (≈ 52.8 µg/mL)	51.18 ± 6.0	6.46 ± 0.4							
Cc1cccc(C[C@H](NC(=O)Nc2ccc3c(c2)OCCO3)C(=O)N[C@@H]2C(=O)N3C[C@H](O)C[C@H]3C(=O)N3CCCC[C@H]3C(=O)N[C@@H](C)C(=O)N3C[C@H](C)C[C@H]3C(=O)O[C@H]2C)c1 [Compound 28, (S)-2-(3-(2,3-DIHYDROBENZO[B][1,4]DIOXIN-6-YL)UREIDO)-N-((2R,6S,8AS,14AS,16R,20S,21S,23AS)-16-HYDROXY-2,6,21-TRIMETHYL-5,8,14,19,23-PENTAOXOOCTADECAHYDRO-1H,5H,14H,19H-PYRIDO[2,1-I]DIPYRROLO[2,1-C:2′,1′-L][1]OXA[4,7,10,13]TETRAAZACYCLOHEXADECIN-20-YL)-3-(M-TOLYL)PROPANAMIDE] ({X3-CO}-[Phe(3-Me)][aThr][Hyp][Pip]A[Pro(4R-Me)]; ester 2-C)	>20	30.2 ± 0.2	34.7 ± 4.7 (≈ 29.4 µg/mL)	>50	>50							
C[C@@H]1C[C@H]2C(=O)O[C@@H](C)[C@H](NC(=O)[C@H](Cc3cc(F)cc(F)c3)NC(=O)Nc3ccc4c(c3)CCN4C)C(=O)N3CCC[C@H]3C(=O)N3CCOC[C@H]3C(=O)N[C@@H](C)C(=O)N2C1 [Compound 32] ({NH(1-Me-indolin-5-yl)-CO}-[Phe(3,5-F2)][aThr]P[Morpholine(3S-CO)]A[Pro(4R-Me)]; ester 2-C)	>20					71.5 ± 1.5 (≈ 60.8 µg/mL)	73.4 ± 3.4			62.5 ± 2.1	>>48 hr	>>48 hr
CCc1ccc(NC(=O)N[C@@H](Cc2cccc(C)c2)C(=O)N[C@@H]2C(=O)N3C[C@H](O)C[C@H]3C(=O)N3CCOC[C@H]3C(=O)N[C@@H](C)C(=O)N3C[C@H](C)C[C@H]3C(=O)O[C@H]2C)cc1 [Compound 24, (S)-2-(3-(4-ETHYLPHENYL)UREIDO)-N-((6AS,8R,12S,13S,15AS,17R,21S,23AS)-8-HYDROXY-13,17,21-TRIMETHYL-6,11,15,20,23-PENTAOXOOCTADECAHYDRO-6H,11H,15H-[1,4]OXAZINO[3,4-I]DIPYRROLO[2,1-C:2′,1′-L][1]OXA[4,7,10,13]TETRAAZACYCLOHEXADECIN-12-YL)-3-(M-TOLYL)PROPANAMIDE] ({NH(4-Et-phenyl)-CO}-[Phe(3-Me)][aThr][Hyp][Morpholine(3S-CO)]A[Pro(4R-Me)]; ester 2-C)	>20	48.4 ± 0.7	43.7 ± 0.9 (≈ 35.7 µg/mL)	90.86	>50							

— patent publication US10570179B2, “Substituted urea depsipeptide analogs as activators of the CLPP endopeptidase” (priority 2016, dated 2020)
